Laboratory results as given in patent US20180028478A1, “ANTIVIRAL COMPOSITIONS DIRECTED AGAINST THE NUCLEOPROTEIN OF INFLUENZA VIRUSES” (priority 2011, published 2018).
pIC50: −log10 of the molar value. Where “and” joins values, the source holds several entries; their conditions need not be identical. Equal entries are not always repeated. Where two headings read alike, the source gives them in different places.

Key:
[1] = tested on: Influenza A/WSN/33 virus; assay: microbe, parasite or virus in culture; assay type: cell-based, Influenza A/WSN/33 (H1N1); conditions: for pIC50: Influenza A virus, WSN, MDCK, read-out: IC50 decrease × 10 viral titer/control (n = 2)
[2] = tested on: Influenza A/PR8/34 virus; parameters: species or system Balb/C mice; conditions: mouse, in vivo
[3] = tested on: H1N1 WSN strain
[4] = tested on: H3N2 virus A/Udorn; conditions: MTT 24 h; A/Udorn MOI 10^−1; 100 μM

Row | SMILES | viral titer decrease, Naproxen vs Tamiflu [1] | IC10 decrease × 10 viral titer/control (n = 2) [1] | Viral titer Pfu/ml MDCK cells ([1]; 50 μM) | pIC50 ([1]; 24 h) | other results
1 | CCOC(=O)C1=C[C@@H](OC(CC)CC)[C@H](NC(C)=O)[C@@H](N)C1 [Tamiflu, oseltamivir] | viral titer decreases similarly |  |  |  | decrease factor of viral titer in lungs vs untreated infected controls [2]: ~100 factor
2 | Cc1ccc(-c2nnc(S)n2/N=C/c2ccc(C(=O)O)cc2)cc1 [compound 72] |  | ~20 μM and ~35 μM | 7.6 ± 4.0 × 10^5 Pfu/ml and 3.9 ± 1.6 × 10^6 Pfu/ml | ~5.30 | 
3 | COc1ccc(-c2nnc(S)n2N=Cc2ccc(C(=O)O)cc2)cc1 [compound 88] |  | No effect |  |  | Viral titer Pfu/ml MDCK cells ([1]; 5 μM): 1-4 × 10^7 Pfu/ml
4 | COc1ccc2cc(C(C)C(=O)O)ccc2c1 (stereo not shown) [Naproxen] | viral titer decreases similarly | ~50 μM |  |  | decrease of viral titers with concentration [1]: the greater the concentration in Naproxen, the quicker the decrease of the viral titers; pIC50 ([1]; 48 h): ~5.00; weight loss [2]: 19%; decrease factor of viral titer in lungs vs untreated infected controls ([2]; ip): ~42 factor; infectious outbreaks in the cell layer and dead cells [3]: reduced the number and the size of the infectious outbreaks; localisation of nucleoprotein [3]: has not modified the localisation of nucleoprotein; Protection % [4]: 85 ± 2%
5 | O=C(O)c1ccc(C=Nn2c(S)nnc2-c2ccc(Cl)cc2Cl)cc1 [compound 59] |  | ~30 μM | 5.5 ± 2.5 × 10^5 Pfu/ml | ~5.30 | 
